Where “and” joins values, the source holds several entries; their conditions need not be identical. Identical values can stand only once. Like-named read-outs stand apart in the source and are kept apart here.
Experiments:
[1] = Kinetics in single dose IV toxicology study in dogs; format: in vivo; settings: for mean CMAX in plasma: combined across gender; for AUC / Cmax: both sexes, dog, plasma; for Cmax: read-out: mean CMAX of Compound (B) in plasma
Description: The kinetics of Compound (A) were also evaluated as part of a single dose IV toxicology study. Compound (A) was given as an IV infusion (ca. 15 min) at doses of 0.5 and 5 mg/kg to 2 dogs/gender/dose. […] Blood samples were obtained over a period of 48 h after dosing, and plasma concentrations of Compound (A) and Compound (B) were determined using the LC/MS/MS assay with a standard curve range of 2-500 ng/mL for both analytes. […] T-HALF, MRT(INF), CLT, and VSS were not determined due to the limited sampling used in the study.

[2] = Pharmacokinetics and absolute oral bioavailability of formulations in beagle dogs; format: in vivo, adult male beagle dogs; settings: for CMAX, mean / TMAX, median / Cmax / Tmax: n = 3; for AUC(0-t) / Cmax / Tmax: male, beagle, dog, plasma; for AUC(0-t): T = 24 h; for Tmax: read-out: TMAX, median
Description: The absolute oral bioavailability of various formulations of Compound (A) in adult male beagle dogs (n=4) was evaluated. Compound (A) was given as a 10 min intravenous (IV) infusion (0.5 mg/kg), a buffered oral solution (2 mg/kg), and a buffered oral suspension (1 mg/kg).
The design was a single-dose, four-treatment, four-period, non-randomized, crossover design. Compound (A) was given to four adult male beagle dogs as a 10 min IV infusion (0.5 mg/kg), a buffered oral solution (2 mg/kg), or a buffered oral suspension (2 mg/kg). […] Upon reconstitution, the pH of the buffered suspension was about 8.0 and the strength was approximately 0.75 mg/mL. Due to cumulative toxicity the dose for the oral suspension scheduled during the third treatment period was reduced from 2 mg/kg to 1 mg/kg. Furthermore, the fourth treatment was not administered for lack of an evaluable formulation. The wash-out period between treatments was at least 7 days. Serial blood samples were collected over 24 h after dose administration and concentrations of Compound (A) and Compound (B) were determined using a LC/MS/MS assay with a standard curve range of 2-500 ng/mL for both analytes. The LC/MS/MS assay was the same as used in Example 1.
Analytical runs consisted of standard, quality control (QC), and study samples. The plasma volume used for analysis was 0.2 mL and the standard curve range was 2 to 500 ng/mL for both analytes, defining the lower limit of quantitation (LLQ) and upper-limit of quantitation (ULQ), respectively. If the predicted concentration of a study sample was less than that of the lowest standard, the value of the predicted concentration was reported as <LLQ. […]. If the predicted concentration was greater than that of the highest standard, the result of that analysis was reported as >ULQ and an appropriate volume of that sample was diluted with blank plasma and reanalyzed.
Four adult male dogs with venous access for drug administration and blood collection were selected for the study. The dogs were acclimated for at least one week prior to study initiation and were housed in individual steel cages. Animals were identified by a unique number and by a tag attached to the cage. The dogs were offered drinking water ad libitum, and fed once a day with standard canine diet except for an overnight (about 12 h) fast prior to dosing which was continued until 4 h after dosing. Fifteen (15) minutes prior to administration of the buffered oral suspension, the dogs were pretreated with pentagastrin (6 :g/kg; intramuscularly). Pentagastrmn pretreatment was used only for the oral suspension leg. The IV dose was administered as a constant-rate infusion over a period of 10 min using a calibrated infusion pump. The oral solution and suspension doses were administered by gavage and the gavage tubes were rinsed with 20 mL of water.
Serial blood samples (3 mL) were collected at predose, and 10 min (IV only; end-of-infusion), 15 min, 20 min (IV only), 30 min, and 45 min, and 1 h, 1.5 h, 2 h, 4 h, 6 h, 8 h, 12 h, and 24 h after dosing. Blood samples were collected into Vacutainer® tubes containing K3-EDTA as the anticoagulant and the contents of each tube were mixed by gently inverting the tube. The blood samples were then placed immediately on chipped ice. Plasma was obtained within 30 min of collection by centrifuging the tubes at approximately 4° C. and 2000×g for 5 min. Plasma samples were stored at or below −20° C. until analyzed for the concentrations Compound (A) and Compound (B).
The peak plasma concentration (CMAX) and the time to reach peak concentration (TMAX) were recorded directly from experimental observations. The area under the plasma concentration-time curve from time zero to T (AUC(0−T)), where T is the time of the last measurable plasma concentration, was calculated using the trapezoidal rule (See, M. Gibaldi, et al., Pharmacokinetics, 2nd ed., New York, N.Y., Marcel Decker, p. 445-91982). […]

[3] = Toxicokinetics in single dose IV toxicology study in rats; format: in vivo
Description: The toxicokinetics of Compound (A) were evaluated in a single dose IV toxicology study in rats. […] Compound (A) was given as an IV infusion (ca. 3 min) at doses of 10, 25, and 30 mg/kg to 3 rats/gender/dose. Serial blood samples were obtained over a period of 24 h after dosing, and plasma concentrations of Compound (A) and Compound (B) were determined using an LC/MS/MS assay with a standard curve range of 2-500 ng/mL for both analytes. At a dose of 10, 25, and 30 mg/kg, the mean CMAX values of Compound (A) in male rats were 6422, 19066, and 24414 ng/mL, respectively; in female rats, the mean CMAX values were 8384, 20524, and 25054 ng/mL, respectively. […] For doses in a ratio of 1:2.5:3 proportion, the mean CMAX values of Compound (A) for males and females were in the ratio of 1:3.0:3.8 and 1:2.5:3.0, respectively, and the AUC values were in the ratio of 1:3.1:4.9 and 1:3.5:4.2, respectively. T-HALF, mean residence time over the time interval zero to infinity MRT(INF), total body clearance (CLT), and VSS were not determined due to the limited sampling used in the study.

[4] = IV infusion of Compound (A) 0.5 mg/kg
[5] = IV infusion of Compound (A) 5 mg/kg
[6] = dogs, IV Compound (A) 0.5 mg/kg
[7] = dogs, buffered oral solution of Compound (A) 2 mg/kg
[8] = two dogs with both IV and oral solution data
[9] = female rats, IV infusion 10 mg/kg
[10] = female rats, IV infusion 25 mg/kg
[11] = female rats, IV infusion 30 mg/kg
[12] = male rats, IV infusion 10 mg/kg
[13] = male rats, IV infusion 25 mg/kg
[14] = male rats, IV infusion 30 mg/kg

SMILES: C/C(=C\c1csc(C)n1)[C@@H]1C[C@@H]2O[C@]2(C)CCC[C@H](C)[C@H](O)[C@@H](C)C(=O)C(C)(C)[C@@H](O)CC(=O)N1 (relative stereo) [Compound (A), [1S-[1R*,3R*(E),7R*,10S*,11R*,12R*,16S*]]-7,11-dihydroxy 8,8,10,12,16-pentamethyl-3-[1-methyl-2-(2-methyl-4-thiazolyl)ethenyl-4-aza-17-oxobicyclo[14.1.0]heptadecane-5,9-dione]
- mean AUC in plasma [1, 4]: 316 ng·h/mL
- mean CMAX in plasma [1, 4]: 218 ng/mL
- mean AUC in plasma [1, 5]: 6925 ng·h/mL
- mean CMAX in plasma [1, 5]: 5118 ng/mL
- CMAX, mean [2, 6]: 1120 (189) ng/mL
- TMAX, median [2, 6]: 10.2 min
- AUC(0−T), mean (SD) [2, 7]: 560 (159) h.ng./mL
- CMAX, mean [2, 7]: 365 (40.9) ng/mL
- TMAX, median [2, 7]: 30 min
- mean AUC after oral solution higher than dose-normalized mean AUC of oral toxicity study ([2]; dogs, oral solution 1.3 mL/kg vs 0.4 mL/kg): approximately 2 fold
- absolute oral bioavailability, individual dogs [2, 8]: 48.3% and 30.6%
- absolute oral bioavailability, mean value [2, 8]: 39.5%
- mean CMAX [3, 9]: 8384 ng/mL
- mean area under the concentration vs. time curve (AUC) [3, 9]: 8156 ng·h/mL
- mean CMAX [3, 10]: 20524 ng/mL
- mean area under the concentration vs. time curve (AUC) [3, 10]: 28476 ng·h/mL
- mean CMAX [3, 11]: 25054 ng/mL
- mean area under the concentration vs. time curve (AUC) [3, 11]: 34563 ng·h/mL
- mean CMAX [3, 12]: 6422 ng/mL
- mean area under the concentration vs. time curve (AUC) [3, 12]: 3864 ng·h/mL
- mean CMAX [3, 13]: 19066 ng/mL
- mean area under the concentration vs. time curve (AUC) [3, 13]: 11980 ng·h/mL
- mean CMAX [3, 14]: 24414 ng/mL
- mean area under the concentration vs. time curve (AUC) [3, 14]: 19269 ng·h/mL

SMILES: CC1=NC(/C=C/[C@@H]2C[C@@H](O)[C@](C)(O)CCC[C@H](C)[C@H](O)[C@@H](C)C(=O)C(C)(C)[C@@H](O)CC(=O)N2)CS1 (some centres unmarked) [Compound (B)]
- AUC [1, 4]: 55 ng·h/mL
- Cmax [1, 4]: 95.6 ng/mL
- AUC [1, 5]: 1110 ng·h/mL
- Cmax [1, 5]: 984 ng/mL
- mean plasma concentration ([2]; dogs, IV Compound (A) 0.5 mg/kg, 0.17 h): 0 ng/mL
- mean plasma concentration ([2]; dogs, IV Compound (A) 0.5 mg/kg, 0.75 h): 0 ng/mL
- mean plasma concentration ([2]; dogs, IV Compound (A) 0.5 mg/kg, 1 h): 0 ng/mL
- mean plasma concentration ([2]; dogs, IV Compound (A) 0.5 mg/kg, 1.5 h): 0 ng/mL
- mean plasma concentration ([2]; dogs, IV Compound (A) 0.5 mg/kg, 2 h): 0 ng/mL
- mean plasma concentration ([2]; dogs, IV Compound (A) 0.5 mg/kg, 4 h): 0 ng/mL
- mean plasma concentration ([2]; dogs, IV Compound (A) 0.5 mg/kg, 6 h): 0 ng/mL
- mean plasma concentration ([2]; dogs, IV Compound (A) 0.5 mg/kg, 8 h): 0 ng/mL
- mean plasma concentration ([2]; dogs, IV Compound (A) 0.5 mg/kg, 12 h): 0 ng/mL
- mean plasma concentration ([2]; dogs, IV Compound (A) 0.5 mg/kg, 24 h): 0 ng/mL
- mean plasma concentration ([2]; dogs, buffered oral solution of Compound (A) 2 mg/kg, 0.25 h): 4.1 ng/mL
- mean plasma concentration ([2]; dogs, buffered oral solution of Compound (A) 2 mg/kg, 0.5 h): 21.3 ng/mL
- mean plasma concentration ([2]; dogs, buffered oral solution of Compound (A) 2 mg/kg, 0.75 h): 27.2 ng/mL
- mean plasma concentration ([2]; dogs, buffered oral solution of Compound (A) 2 mg/kg, 1 h): 23.8 ng/mL
- mean plasma concentration ([2]; dogs, buffered oral solution of Compound (A) 2 mg/kg, 2 h): 8.4 ng/mL
- mean plasma concentration ([2]; dogs, buffered oral solution of Compound (A) 2 mg/kg, 4 h): 2.4 ng/mL
- mean plasma concentration ([2]; dogs, buffered oral solution of Compound (A) 2 mg/kg, 6 h): 0.8 ng/mL
- mean plasma concentration ([2]; dogs, buffered oral solution of Compound (A) 2 mg/kg, 8 h): 0 ng/mL
- mean plasma concentration ([2]; dogs, buffered oral solution of Compound (A) 2 mg/kg, 12 h): 0 ng/mL
- mean plasma concentration ([2]; dogs, buffered oral solution of Compound (A) 2 mg/kg, 24 h): 0 ng/mL
- AUC(0-t) [2, 6]: 0.69 ng·h/mL
- Cmax [2, 6]: 3.8 ng/mL
- Tmax [2, 6]: 10.2 min
- AUC(0-t) [2, 7]: 45.2 ng·h/mL
- Cmax [2, 7]: 27.2 ng/mL
- Tmax [2, 7]: 45 min
- AUC ([3]; both sexes, rat, plasma, rats, IV Compound (A) 10-30 mg/kg, read-out: AUC of Compound (B) across gender and dose groups): 222 to 2000 ng·h/mL
- Cmax ([3]; both sexes, rat, plasma, rats, IV Compound (A) 10-30 mg/kg, read-out: CMAX of Compound (B) across gender and dose groups): 499 to 1790 ng/mL
